Values of other authors, collected in patent US20030096243A1, “Methods and reagents for live-cell gene expression quantification” (priority 2000, published 2003).
Ends that are not written are not given here. * marks the point of attachment. FITC = O=C1OC2(c3ccc(O)cc3Oc3cc(O)ccc32)c2ccc(NC(=S)*)cc21

How the values were obtained:
N protein = molecular target: T1, N protein (Escherichia phage lambda, UniProt P03045); details: native sequence GCCCUGAAAAAGGGC (SEQ ID NO: 45)
T1 sequence (P03045 1-107): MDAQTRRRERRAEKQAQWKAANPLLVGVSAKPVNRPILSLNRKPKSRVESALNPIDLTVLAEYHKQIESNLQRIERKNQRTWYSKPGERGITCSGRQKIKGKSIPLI

[1] = system: boxB RNA stem-loop structure

Row | Substance | in vivo activity relative to the native boxB sequence (N protein) | affinity for boxB RNA [1]
1 | GCCCUAGAAAAGGGC (chemistry not given here) [SEQ ID NO: 46] | ~90% | –
2 | GCCCUAAAAAAGGGC (chemistry not given here) [SEQ ID NO: 44] | less than 1% | –
3 | N1-22: arginine-rich peptide comprising the first twenty-two amino acids of bacteriophage λ N protein ({FITC}-MDAQTRRRERRAEKQAQWKAANKG; not fully specified (residue 23); also: doubly labeled) | – | high affinity
